Experimental findings from PubChem BioAssay AID2060627 (Molecular Pharmacology Branch, DTP, NCI, 2025) are described below.

Several values for one entry are separate records, joined by “and”; a condition that tells them apart may be missing. Equal values may be shown once. A value given as a limit tells only on which side of the number the result lay.

The assay concerns 156681-154-R-J1-PDC complex spheroid viability. Put plainly: Anticancer human tumor 156681-154-R-J1-PDC patient-derived melanoma cell line growth inhibition [CLK]. As to conditions: for viability, T/C: stronger effect = lower value. In a few lines:
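Multi-cell-type spheroids combined patient-derived tumor cells with HUVEC endothelial cells and human mesenchymal stem cells. Paired agents were dosed in half-log steps down from about clinical Cmax, or from 10 microM where Cmax was unknown.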
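Further: spheroids exposed to the agents for seven days.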
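Wherever viability, T/C is given: 100% = DMSO vehicle control viability.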

In the case of `CNC(=O)c1ccc(Nc2nc(OC3CCCC3)c3c(-c4ccc5nc(C)oc5c4)c[nH]c3n2)c(OC)c1`, the viability, T/C is 105% [middle of 12 runs] (compound 0.0316 µM); 63% [middle of 12 runs] (compound 0.1 µM); 54.3% [middle of 12 runs] (compound 0.316 µM); 36.4% [middle of 11 runs] (compound 1 µM); 42.1% [middle of 12 runs] (compound 3.16 µM).
Take `CC1(C)CCC(CN2CCN(c3ccc(C(=O)NS(=O)(=O)c4ccc(NCC5CCOCC5)c([N+](=O)[O-])c4)c(Oc4cnc5[nH]ccc5c4)c3)CC2)=C(c2ccc(Cl)cc2)C1`: the viability, T/C was 112% and 88.5% (compound 0.0316 µM); 81.5% and 88.9% (compound 0.1 µM); 88.7% and 90.4% (compound 0.316 µM); 101% and 94.3% (compound 1 µM); 68.2% and 77.1% (compound 3.16 µM); 4.6% and 1.6% (compound 10 µM). Further, the IC50 (curve of compound) was 4390 nM and 4780 nM.
For the molecule `COc1c(OCCCN2CCOCC2)ccc2c3n(c(=NC(=O)c4cnc(N)nc4)nc12)CCN3` + CNC(=O)c1ccc(Nc2nc(OC3CCCC3)c3c(-c4ccc5nc(C)oc5c4)c[nH]c3n2)c(OC)c1, the half-maximal inhibitory concentration (IC50) (curve of first compound, second compound 0.0316 µM) came to 17.4 nM; the half-inhibitory concentration (IC50) (curve of first compound, second compound 0.1 µM) came out at 10.2 nM; the 50% inhibitory concentration (IC50) (curve of first compound, second compound 0.316 µM) came to 7 nM; the IC50 (curve of first compound, second compound 1 µM) stood at 3.39 nM; the concentration for half-maximal inhibition (IC50) (curve of first compound, second compound 3.16 µM) is below 3.16 nM; the IC50 (curve of first compound, second compound 10 µM) was below 3.16 nM. Further, the viability, T/C runs as follows: (second compound 0.0316 µM, first compound 0.00316 µM) 74.4%; (second compound 0.0316 µM, first compound 0.01 µM) 64.8%; (second compound 0.0316 µM, first compound 0.0316 µM) 33.8%; (second compound 0.0316 µM, first compound 0.1 µM) 17.3%; (second compound 0.0316 µM, first compound 0.316 µM) 2.95%; (second compound 0.0316 µM, first compound 1 µM) 0.22%. Besides, the viability, T/C runs as follows: (second compound 0.1 µM, first compound 0.00316 µM) 50.5%; (second compound 0.1 µM, first compound 0.01 µM) 56.1%; (second compound 0.1 µM, first compound 0.0316 µM) 33.5%; (second compound 0.1 µM, first compound 0.1 µM) 18.5%; (second compound 0.1 µM, first compound 0.316 µM) 2.54%; (second compound 0.1 µM, first compound 1 µM) 0.32%. In addition, the viability, T/C (second compound 0.316 µM, first compound 0.00316 µM) was 61.2%; the viability, T/C (second compound 0.316 µM, first compound 0.01 µM) was 44.2%; the viability, T/C (second compound 0.316 µM, first compound 0.0316 µM) is 27.9%; the viability, T/C (second compound 0.316 µM, first compound 0.1 µM) is 13.3%; the viability, T/C (second compound 0.316 µM, first compound 0.316 µM) is 4.38%; the viability, T/C (second compound 0.316 µM, first compound 1 µM) was 3.9%. In addition, the viability, T/C runs as follows: (second compound 1 µM, first compound 0.00316 µM) 50.8%; (second compound 1 µM, first compound 0.01 µM) 37.3%; (second compound 1 µM, first compound 0.0316 µM) 18.8%; (second compound 1 µM, first compound 0.1 µM) 6.93%; (second compound 1 µM, first compound 0.316 µM) 1.63%; (second compound 1 µM, first compound 1 µM) 0.35%. Besides, the viability, T/C was 47.6% (second compound 3.16 µM, first compound 0.00316 µM); 35.5% (second compound 3.16 µM, first compound 0.01 µM); 19.9% (second compound 3.16 µM, first compound 0.0316 µM); 6.45% (second compound 3.16 µM, first compound 0.1 µM); 1.23% (second compound 3.16 µM, first compound 0.316 µM); 0.32% (second compound 3.16 µM, first compound 1 µM). In addition, the viability, T/C by setting is: (second compound 10 µM, first compound 0.00316 µM) 49.1%; (second compound 10 µM, first compound 0.01 µM) 30.9%; (second compound 10 µM, first compound 0.0316 µM) 10.6%; (second compound 10 µM, first compound 0.1 µM) 5.7%; (second compound 10 µM, first compound 0.316 µM) 1.04%; (second compound 10 µM, first compound 1 µM) 0.31%.

What is called viability, T/C is the ratio of treated to control. The term IC50 denotes the concentration at which inhibition is half-maximal.
